Active and inactive are the calls of the source. The calls are words filed in the database; no cut-off is given here.
Experiments:
[1] = tested on: Rattus norvegicus; assay: Antihypertensive activity in conscious SHR rat assessed as lowering of tail arterial mean blood pressure at 5 mg/kg during 10 to 130 mins by indirect tail-cuff method; assay type: functional, organism-based; design: dose 5 mg/kg; conditions: Artery
[2] = tested on: Rattus norvegicus; assay: Antihypertensive activity in iv dosed conscious SHR rat assessed as maximal change in tail arterial blood pressure measured at 10 mins interval by dose-response curve analysis; assay type: functional; conditions: Artery
[3] = tested on: Rattus norvegicus; assay: Antihypertensive activity in conscious SHR rat assessed as maximal change in tail arterial blood pressure at 20 mg/kg, iv measured at 10 mins interval relative to blood pressure obtained at preinjection; assay type: functional, Artery
[4] = tested on: Rattus norvegicus; assay: Induction of hypotensive effect in conscious normotensive WKY rat; assay type: functional, organism-based
[5] = tested on: Rattus norvegicus; assay: Antihypertensive activity in iv dosed conscious normotensive WKY rat assessed as maximal change in tail arterial blood pressure measured at 10 mins interval by dose-response curve analysis; assay type: functional; conditions: Artery
[6] = tested on: Rattus norvegicus; assay: Antihypertensive activity in conscious SHR rat assessed as maximal change in tail arterial blood pressure at 50 mg/kg, iv measured at 10 mins interval relative to blood pressure obtained at preinjection; assay type: functional, Artery
[7] = tested on: Rattus norvegicus; assay: Antihypertensive activity in conscious SHR rat assessed as maximal change in tail arterial blood pressure at 10 mg/kg, iv measured at 10 mins interval relative to blood pressure obtained at preinjection; assay type: functional, Artery
[8] = tested on: Rattus norvegicus; assay: Antihypertensive activity in conscious SHR rat assessed as maximal change in tail arterial blood pressure at 15 mg/kg, iv measured at 10 mins interval relative to blood pressure obtained at preinjection; assay type: functional, Artery
[9] = tested on: Rattus norvegicus; assay: Induction of […] activity in conscious normotensive WKY rat assessed as maximal change in tail arterial blood pressure at 15 mg/kg, iv measured at 10 mins interval relative to blood pressure obtained at preinjection; assay type: functional, organism-based; design: dose 15 mg/kg

## O=C(O[C@@H]1O[C@@H]2COC(=O)c3cc(O)c(O)c(O)c3-c3c(cc(O)c(O)c3O)C(=O)O[C@H]([C@H]1O)[C@@H]2O)c1cc(O)c(O)c(O)c1 [CORILAGIN]
[1]
  Activity: Active
[2]
  Activity: Dose-dependent effect
  ED50: 6.7 mg/kg
[3]
  Activity: -52.6 mmHg
[4]
  Activity: Active
[5]
  ED50: 6.5 mg/kg

## O=C(OC[C@H]1O[C@@H](O)[C@H](OC(=O)c2cc(O)c(O)c(O)c2)[C@@H](OC(=O)c2cc(O)c(O)c(O)c2)[C@@H]1OC(=O)c1cc(O)c(O)c(O)c1)c1cc(O)c(O)c(O)c1
[6]
  Activity: -5.2 mmHg

## O=C(O)C[C@H]1C(=O)O[C@H]2[C@H](OC(=O)c3cc(O)c(O)c(O)c3)[C@@H](OC(=O)c3cc(O)c(O)c4c3[C@H]1[C@H](O)C(=O)O4)[C@H](OC(=O)c1cc(O)c(O)c(O)c1)O[C@@H]2COC(=O)c1cc(O)c(O)c(O)c1 [CHEBULINIC ACID]
[1]
  Activity: Active
[2]
  Activity: Dose-dependent effect
  ED50: 3.2 mg/kg
[7]
  Activity: -76.9 mmHg
[4]
  Activity: Active
[5]
  ED50: 3.4 mg/kg

## O=C1OC[C@H]2OC(=O)c3cc(O)c(O)c(O)c3-c3c(O)c(O)c(O)c4c3C(=O)O[C@H]([C@H]3OC(=O)c5c-4c(O)c(O)c(O)c5[C@H]3O)[C@@H]2OC(=O)c2cc(O)c(O)c(O)c2-c2c1cc(O)c(O)c2O [CASTALAGIN]
[1]
  Activity: Active
[2]
  Activity: Dose-dependent effect
  ED50: 6.3 mg/kg
[3]
  Activity: -49.6 mmHg
[4]
  Activity: Active
[5]
  ED50: 6.4 mg/kg

## O=C(O)C[C@@H]1C(=O)O[C@H]2[C@@H]3OC(=O)c4cc(O)c(O)c(O)c4-c4c(cc(O)c(O)c4O)C(=O)OC[C@H]2O[C@@H](OC(=O)c2cc(O)c(O)c(O)c2)[C@@H]3OC(=O)c2cc(O)c(O)c3c2[C@H]1[C@H](O)C(=O)O3 [CHEBULAGIC ACID]
[6]
  Activity: -6.5 mmHg

## O=C(O[C@@H]1[C@@H](OC(=O)c2cc(O)c(O)c(O)c2)[C@H](O)[C@@H](CO)O[C@H]1O)c1cc(O)c(O)c(O)c1
[6]
  Activity: 4.52 mmHg

## O=C1O[C@@H]2[C@@H](OC(=O)c3cc(O)c(O)c(O)c3-c3c1cc(O)c(O)c3O)[C@H](O)[C@@H](CO)O[C@H]2O
[6]
  Activity: -5.5 mmHg

## O=C1O[C@@H]2[C@@H](OC(=O)c3cc(O)c(O)c(O)c3-c3c1cc(O)c(O)c3O)[C@H](O)O[C@@H]1COC(=O)c3cc(O)c(O)c(O)c3-c3c(O)c(O)c4oc(=O)c5c(c(O)c(O)c6oc(=O)c3c4c65)-c3c(cc(O)c(O)c3O)C(=O)O[C@@H]21 [PUNICALAGIN]
[2]
  ED50: 5.4 mg/kg
[8]
  Activity: -63.4 mmHg
[9]
  Activity: Active

## O=C(OC[C@H]1O[C@@H](OC(=O)c2cc(O)c(O)c(O)c2)[C@H](OC(=O)c2cc(O)c(O)c(O)c2)[C@@H](OC(=O)c2cc(O)c(O)c(O)c2)[C@@H]1OC(=O)c1cc(O)c(O)c(O)c1)c1cc(O)c(O)c(O)c1 [PENTAGALLOYL GLUCOSE]
[6]
  Activity: -7.1 mmHg

## O=C(OC[C@H]1O[C@@H](OC(=O)c2cc(O)c(O)c(O)c2)[C@H](OC(=O)c2cc(O)c(O)c(O)c2)[C@@H](OC(=O)c2cc(O)c(O)c(O)c2)[C@@H]1O)c1cc(O)c(O)c(O)c1
[6]
  Activity: 2.3 mmHg

From ChEMBL document CHEMBL1147357, “Antihypertensive Activity of Corilagin and Chebulinic Acid, Tannins from Lumnitzera, racemosa” (1993)
